Measured values from publication PMC7951137 (ACS chemical neuroscience, 2021).
Where two headings read alike, the source gives them in different places. [ ]: non-standard residue; d: D form.

Tests used:
[1] = molecular target: D189K hMC4R (Homo sapiens, UniProt P32245, D189K); experiment: cAMP AlphaScreen antagonist assay; type: cell-based
[2] = molecular target: T1, wildtype hMC4R (Homo sapiens, UniProt P32245); experiment: cAMP AlphaScreen antagonist assay; type: cell-based
[3] = molecular target: T2, D189Q hMC4R (Homo sapiens, UniProt P32245, D189Q); experiment: cAMP AlphaScreen agonist / inverse agonist assay; type: cell-based; conditions: for Inverse agonist percent decrease from basal activity: D189Q hMC4R
[4] = molecular target: T1, wildtype hMC4R; experiment: cAMP AlphaScreen agonist / inverse agonist assay; type: cell-based; conditions: WT hMC4R; basal = signal at 10^−12 M
[5] = molecular target: T2, D189Q hMC4R; experiment: cAMP AlphaScreen antagonist assay; type: cell-based
[6] = molecular target: D189N hMC4R (Homo sapiens, UniProt P32245, D189N); experiment: cAMP AlphaScreen agonist / inverse agonist assay; type: cell-based; conditions: for Inverse agonist percent decrease from basal activity: D189N hMC4R
[7] = molecular target: D189A hMC4R (Homo sapiens, UniProt P32245, D189A); experiment: cAMP AlphaScreen antagonist assay; type: cell-based
[8] = molecular target: D189E hMC4R (Homo sapiens, UniProt P32245, D189E); experiment: cAMP AlphaScreen agonist / inverse agonist assay; type: cell-based; conditions: for Inverse agonist percent decrease from basal activity: D189E hMC4R
[9] = molecular target: D189S hMC4R (Homo sapiens, UniProt P32245, D189S); experiment: cAMP AlphaScreen agonist / inverse agonist assay; type: cell-based; conditions: for Inverse agonist percent decrease from basal activity: D189S hMC4R
[10] = test system: mMC4R; conditions: cited from earlier work
[11] = molecular target: T3, human melanocortin-4 receptor (hMC4R), wild type, N-terminal FLAG-tagged (human, UniProt P32245 1-332); experiment: radioligand binding
[12] = molecular target: T3, human melanocortin-4 receptor (hMC4R), …; experiment: radioligand binding; remark: listed apart in the source
[13] = molecular target: T4, D189A mutant hMC4R, N-terminal FLAG-tagged (human, UniProt P32245 1-332, D189A); experiment: radioligand binding
[14] = molecular target: T5, D189E mutant hMC4R, N-terminal FLAG-tagged (human, UniProt P32245 1-332, D189E); experiment: radioligand binding
[15] = molecular target: T6, D189N mutant hMC4R, N-terminal FLAG-tagged (human, UniProt P32245 1-332, D189N); experiment: radioligand binding
[16] = molecular target: T7, D189Q mutant hMC4R, N-terminal FLAG-tagged (human, UniProt P32245 1-332, D189Q); experiment: radioligand binding
[17] = molecular target: T8, D189K mutant hMC4R, N-terminal FLAG-tagged (human, UniProt P32245 1-332, D189K); experiment: radioligand binding
[18] = molecular target: T9, D189S mutant hMC4R, N-terminal FLAG-tagged (human, UniProt P32245 1-332, D189S); experiment: radioligand binding
[19] = molecular target: T3, human melanocortin-4 receptor (hMC4R), …; experiment: radioligand binding; remark: listed apart in the source
[20] = molecular target: T4, D189A mutant hMC4R, N-terminal …; experiment: cell-based or functional assay
[21] = molecular target: T5, D189E mutant hMC4R, N-terminal …; experiment: cell-based or functional assay
[22] = molecular target: T6, D189N mutant hMC4R, N-terminal …; experiment: cell-based or functional assay
[23] = molecular target: T7, D189Q mutant hMC4R, N-terminal …; experiment: cell-based or functional assay
[24] = molecular target: T8, D189K mutant hMC4R, N-terminal …; experiment: cell-based or functional assay
[25] = molecular target: T9, D189S mutant hMC4R, N-terminal …; experiment: cell-based or functional assay
[26] = molecular target: T3, human melanocortin-4 receptor (hMC4R), …; experiment: cell-based or functional assay

D189E hMC4R, sequence (P32245 whole entry D189E): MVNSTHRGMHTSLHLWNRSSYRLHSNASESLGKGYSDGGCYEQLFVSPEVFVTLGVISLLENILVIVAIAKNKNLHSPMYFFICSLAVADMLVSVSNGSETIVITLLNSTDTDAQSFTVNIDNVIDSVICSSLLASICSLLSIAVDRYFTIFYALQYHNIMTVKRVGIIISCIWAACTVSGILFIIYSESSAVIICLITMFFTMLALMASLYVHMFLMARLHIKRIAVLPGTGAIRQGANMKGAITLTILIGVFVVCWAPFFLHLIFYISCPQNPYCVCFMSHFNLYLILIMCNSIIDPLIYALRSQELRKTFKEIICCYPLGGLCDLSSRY
D189N hMC4R, sequence (P32245 whole entry D189N): as the sequence (P32245 whole entry D189E) above, with E189N counted along it
D189K hMC4R, sequence (P32245 whole entry D189K): as the sequence (P32245 whole entry D189E) above, with E189K counted along it
D189A hMC4R, sequence (P32245 whole entry D189A): as the sequence (P32245 whole entry D189E) above, with E189A counted along it
D189S hMC4R, sequence (P32245 whole entry D189S): as the sequence (P32245 whole entry D189E) above, with E189S counted along it
T3 sequence (P32245 whole entry): as the sequence (P32245 whole entry D189E) above, with E189D counted along it
T1 sequence (P32245 whole entry): as the sequence (P32245 whole entry D189E) above, with E189D counted along it
T2 sequence (P32245 whole entry D189Q): as the sequence (P32245 whole entry D189E) above, with E189Q counted along it
T5 sequence (P32245 whole entry D189E): as the sequence (P32245 whole entry D189E) above
T6 sequence (P32245 whole entry D189N): as the sequence (P32245 whole entry D189E) above, with E189N counted along it
T8 sequence (P32245 whole entry D189K): as the sequence (P32245 whole entry D189E) above, with E189K counted along it
T4 sequence (P32245 whole entry D189A): as the sequence (P32245 whole entry D189E) above, with E189A counted along it
T9 sequence (P32245 whole entry D189S): as the sequence (P32245 whole entry D189E) above, with E189S counted along it
T7 sequence (P32245 whole entry D189Q): as the sequence (P32245 whole entry D189E) above, with E189Q counted along it

C[C@@H]1NC(=O)[C@H](CCC(=O)O)NC(=O)[C@H](Cc2ccccc2)NC(=O)[C@H](Cc2ccccc2)NC(=O)[C@H](CCCNC(=N)N)NC(=O)[C@@H]2CCCN2C(=O)[C@H]2CCCN2C(=O)[C@H](Cc2ccccc2)NC1=O [MDE3–119-5c, c[Pro-Arg-Phe-Phe-Glu-Ala-Phe-DPro]]
Kb [1]: > 3160 nM
Kb [2]: 100 nM
EC50 [3]: 7000 nM
Inverse agonist percent decrease from basal activity [3]: −40%
Inverse agonist percent decrease from basal signal [4]: −35%
Kb [5]: 2000 nM
EC50 [6]: 3000 nM
Inverse agonist percent decrease from basal activity [6]: −5%
Kb [7]: > 3160 nM
EC50 [8]: 1100 nM
Inverse agonist percent decrease from basal activity [8]: −40%

C[C@@H]1NC(=O)[C@H](CO)NC(=O)[C@H](Cc2ccccc2)NC(=O)[C@H](Cc2ccccc2)NC(=O)[C@H](CCCNC(=N)N)NC(=O)[C@@H]2CCCN2C(=O)[C@H]2CCCN2C(=O)[C@H](Cc2ccccc2)NC1=O [MDE3–85c, c[Pro-Arg-Phe-Phe-Ser-Ala-Phe-DPro]]
Kb [1]: 501 nM
EC50 [9]: 600 ± 400 nM
Inverse agonist percent decrease from basal activity [9]: −25%
Kb [2]: 10 nM
Inverse agonist percent decrease from basal activity [3]: −35%
Inverse agonist percent decrease from basal signal [4]: −25%
Kb [5]: 158 nM
EC50 [6]: 100 ± 40 nM
Inverse agonist percent decrease from basal activity [6]: −20%
Kb [7]: 1000 nM
EC50 [8]: 11 ± 4 nM
Inverse agonist percent decrease from basal activity [8]: −25%

C[C@@H]1NC(=O)[C@@H](CN)NC(=O)[C@H](Cc2ccccc2)NC(=O)[C@H](Cc2ccccc2)NC(=O)[C@H](CCCNC(=N)N)NC(=O)[C@@H]2CCCN2C(=O)[C@H]2CCCN2C(=O)[C@H](Cc2ccccc2)NC1=O [MDE3–119-7c, c[Pro-Arg-Phe-Phe-DDap-Ala-Phe-DPro]]
Inverse agonist percent decrease from basal activity [9]: −30%
Inverse agonist percent decrease from basal activity [3]: −40%
Inverse agonist percent decrease from basal signal [4]: −30%
Inverse agonist percent decrease from basal activity [6]: −15%
Inverse agonist percent decrease from basal activity [8]: −35%

c[Pro-Arg-Phe-Phe-Phe-Ala-Phe-DPro] [MDE3–119-14c]
Decrease in antagonist potency relative to MDE3–119-8c ([2]; hMC4R): 80 fold
Previously decreased antagonist potency (comparator not restated) [10]: 50–100 fold

C[C@@H]1NC(=O)[C@H](C)NC(=O)[C@H](Cc2ccccc2)NC(=O)[C@H](Cc2ccccc2)NC(=O)[C@H](CCCNC(=N)N)NC(=O)[C@@H]2CCCN2C(=O)[C@H]2CCCN2C(=O)[C@H](Cc2ccccc2)NC1=O [MDE3–154c, c[Pro-Arg-Phe-Phe-Ala-Ala-Phe-DPro]]
Kb [1]: 794 nM
Inverse agonist percent decrease from basal activity [3]: −25%
Inverse agonist percent decrease from basal signal [4]: −35%
Kb [5]: 251 nM
Kb [7]: 2510 nM
EC50 [8]: 16 ± 2 nM
Inverse agonist percent decrease from basal activity [8]: −25%

CC[C@@H]1NC(=O)[C@H](Cc2ccccc2)NC(=O)[C@H](Cc2ccccc2)NC(=O)[C@H](CCCNC(=N)N)NC(=O)[C@@H]2CCCN2C(=O)[C@H]2CCCN2C(=O)[C@H](Cc2ccccc2)NC(=O)[C@H](C)NC1=O [MDE3–119-2c, c[Pro-Arg-Phe-Phe-Abu-Ala-Phe-DPro]]
Inverse agonist percent decrease from basal signal [4]: −15%

C[C@@H]1NC(=O)[C@H](CN)NC(=O)[C@H](Cc2ccccc2)NC(=O)[C@H](Cc2ccccc2)NC(=O)[C@H](CCCNC(=N)N)NC(=O)[C@@H]2CCCN2C(=O)[C@H]2CCCN2C(=O)[C@H](Cc2ccccc2)NC1=O [MDE3–119-8c, c[Pro-Arg-Phe-Phe-Dap-Ala-Phe-DPro]]
Inverse agonist percent decrease from basal activity [9]: −35%
Inverse agonist percent decrease from basal activity [3]: −45%
Inverse agonist percent decrease from basal signal [4]: −50%
Inverse agonist percent decrease from basal activity [6]: −15%
Inverse agonist percent decrease from basal activity [8]: −55%

c[Pro-Arg-Phe-Phe-His-Ala-Phe-DPro] [MDE3–119-13c]
Inverse agonist percent decrease from basal activity [3]: −30%
Inverse agonist percent decrease from basal signal [4]: −30%
Inverse agonist percent decrease from basal activity [8]: −15%

C[C@@H]1NC(=O)[C@H](CC(N)=O)NC(=O)[C@H](Cc2ccccc2)NC(=O)[C@H](Cc2ccccc2)NC(=O)[C@H](CCCNC(=N)N)NC(=O)[C@@H]2CCCN2C(=O)[C@H]2CCCN2C(=O)[C@H](Cc2ccccc2)NC1=O [MDE5–108-10c, c[Pro-Arg-Phe-Phe-Asn-Ala-Phe-DPro]]
Inverse agonist percent decrease from basal activity [9]: −20%
Inverse agonist percent decrease from basal activity [3]: −45%
Inverse agonist percent decrease from basal signal [4]: −30%
Inverse agonist percent decrease from basal activity [6]: −20%
Inverse agonist percent decrease from basal activity [8]: −25%

cyclo(PRFFDAF[dP]) [MDE3–119-4c]
IC50 [11]: 1300 nM
IC50 [12]: 3600 nM

cyclo(PRFFEAF[dP]) [MDE3–119-5c]
IC50 [11]: 1400 nM
IC50 [12]: 2500 nM

RCVRLHESCLGQQVPCCDPCATCYCRFFNAFCYCRKLGTAMNPCSRT (domain or fragment, UniProt O00253 86-132, looked up) [human agouti-related protein hAGRP(86–132)]
IC50 [11]: 12 nM
IC50 [13]: > 1000 nM
IC50 [14]: 6 nM
IC50 [15]: 10.5 nM
IC50 [16]: 10 nM
IC50 [17]: 150 nM
IC50 [18]: 12.5 nM
IC50 [19]: 12 nM
pA2, antagonism of NDP-MSH (Schild analysis), cAMP AlphaScreen, HEK293 cells [20]: 6.9
pA2, antagonism of NDP-MSH (Schild analysis), cAMP AlphaScreen, HEK293 cells [21]: 8.8
pA2, antagonism of NDP-MSH (Schild analysis), cAMP AlphaScreen, HEK293 cells [22]: 8.4
pA2, antagonism of NDP-MSH (Schild analysis), cAMP AlphaScreen, HEK293 cells [23]: 8.1
pA2, antagonism of NDP-MSH (Schild analysis), cAMP AlphaScreen, HEK293 cells [24]: 7.2
pA2, antagonism of NDP-MSH (Schild analysis), cAMP AlphaScreen, HEK293 cells [25]: 8.2
pA2, antagonism of NDP-MSH (Schild analysis), cAMP AlphaScreen, HEK293 cells [26]: 8.8
